Reference: EP0333004A2, “Light sensitive diazonium compounds, process for their preparation and their use” (priority 1988, dated 1989)

Experiments:
[1] = Combustion number (Brennziffer, BZ), safety characteristic; format: physicochemical; settings: solid isolated diazonium salt form
[2] = Dust explosion class (ST), safety characteristic; format: physicochemical; settings: solid isolated diazonium salt form
[3] = Onset of exothermic decomposition (EZ); format: physicochemical; settings: for Exotherme Zer-setzung (EZ): temperature at which exothermic decomposition begins
[4] = Differential thermal analysis (DTA), violence of decomposition; format: physicochemical; settings: characterises the violence of decomposition
[5] = Impact sensitivity; format: physicochemical
[6] = Explosion hazard; format: physicochemical
[7] = Solubility in water; format: physicochemical; settings: 20 °C
[8] = species and route not given; cited from earlier work

Compound | Brenn-ziffer (BZ) [1] | Staubexplo-sionsklasse (ST) [2] | exotherme Zersetzung, höher als bei dem entsprechenden Zinkchlorid-Doppelsalz ([3]; difference to the corresponding zinc chloride double salt) [°C] | Exotherme Zer-setzung (EZ) [3] [°C] | Differential-thermoanalyse (DTA) [4] [kJ/kg] | schlagemp-findlich [5] | explosions-gefährlich [6] | Löslichkeit in Wasser [7] | solubility ([7]; read-out: Löslichkeit in Wasser) [µg/mL] | LD₅₀-Wert (LD - Letale Dosis) [8] [mg/kg]
4-N,N-Dimethylaminobenzoldiazonium-sulfosalicylat [Sulfosalicylat R1=R2=CH3 R3 = H] | 3 | 1 | 40 | 140 | -490 | nein | nein | 10,4 g/l | – | –
4-N,N-Dimethylaminobenzoldiazoniumchlorzinkat [ZnCl2 stabilisiert R1=R2=CH3 R3 = H, reference compound] | 3 | 0 | – | 100 | -720 | nein | nein | – | – | –
CN(C)c1ccc([N+]#N)cc1 [4-N,N-Dimethylaminobenzoldiazonium-sulfoisophthalat, reference compound] | – | – | – | – | – | – | – | – | 3800 | –
Cc1cc([N+]#N)ccc1N1CCCC1 [Sulfosalicylat R1,R2=(CH2)4 R3 = CH3, 3-Methyl-4-N-pyrrolidinobenzoldiazonium-sulfosalicylat] | 3 | 1 | – | 120 | -400 | nein | nein | – | – | –
O=C(O)c1cc(S(=O)(=O)O)ccc1O [Sulfosalicylsäure] | – | – | – | – | – | – | – | – | – | 2450
